Reference: publication PMC5021161 (Environmental and Molecular Mutagenesis, 2016)
Read-outs that look alike come from different tables or passages of the source. One block for each compound: values may come before it.

How the values were obtained:
[1] = tested on: GADD45A; assay type: cell-based, human
[2] = tested on: TK6 cells; conditions: for % MN: 2% Aroclor S9; for statistically significant % MN increase relative to controls: for at least one concentration
[3] = tested on: TGx‐28.65 biomarker genes; conditions: for Dendogram TGx‐28.65 / NSC TGx‐28.65 / PCA TGx‐28.65: 2% Aroclor S9, 4 hr + 3-4 hr recovery
[4] = tested on: TK6 cells; conditions: 2% Aroclor S9, 4 hr + 20 hr recovery
[5] = tested on: CDKN1A; assay type: cell-based, human
[6] = tested on: ATF3; assay type: cell-based, human; conditions: 2% Aroclor S9, 4 hr + 3-4 hr recovery
[7] = tested on: TK6 cells; conditions: for % Relative Survival: 2% Aroclor S9, 4 hr + 20 hr recovery
[8] = tested on: TGx‐28.65 biomarker genes; conditions: 2015, cited from earlier work; for Dendogram TGx‐28.65 / NSC TGx‐28.65 / PCA TGx‐28.65: 1% BF/PB S9
[9] = tested on: TK6 cells; conditions: 1% BF/PB S9, ref Buick et al., 2015, cited from earlier work
[10] = tested on: ATF3, CDKN1A, and GADD45A; experiment: RT‐qPCR of the three stress response genes; assay type: cell-based, human; conditions: 2% Aroclor‐induced S9
[11] = 2 μg/ml, 2% Aroclor S9, 4 hr + 3-4 hr recovery
[12] = 1 μg/ml, 2% Aroclor S9, 4 hr + 3-4 hr recovery
[13] = 20 μg/ml, 2% Aroclor S9, 4 hr + 3-4 hr recovery
[14] = 280 μg/ml, 2% Aroclor S9, 4 hr + 3-4 hr recovery
[15] = 1 mM, 2% Aroclor S9, 4 hr + 3-4 hr recovery
[16] = 5 mM, 2% Aroclor S9, 4 hr + 3-4 hr recovery
[17] = 10 mM, 2% Aroclor S9, 4 hr + 3-4 hr recovery

Compound: Nc1ccc2cc3ccccc3cc2c1 [2‐Aminoanthracene]
GADD45A fold change vs vehicle control (+S9) [1, 11]: 1.7 fold change
% MN ([2]; 2 μg/ml, 4 hr + 20 hr recovery): 1.22%
fold increase in % MN above vehicle + S9 control ([2]; high concentration, definitive study, 4 hr + 20 hr recovery): 1.8 fold
Dendogram TGx‐28.65 ([3]; 2 μg/ml): +
NSC TGx‐28.65 ([3]; 2 μg/ml): +
PCA TGx‐28.65 ([3]; 2 μg/ml): +
probability of being genotoxic (NSC, TGx‐28.65) ([3]; all concentrations): > 0.9
classification using TGx‐28.65 ([3]; mid and high concentrations): genotoxic
% Apoptotic cells ([4]; 2 μg/ml): 18.48%
CDKN1A fold change vs vehicle control (+S9) [5, 11]: 4.6 fold change
ATF3 fold change vs vehicle control (+S9) ([6]; 2 μg/ml): 2.3 fold change
% Relative Survival ([7]; 2 μg/ml): 46.78%
% Relative Survival ([7]; 2 μg/ml, listed as 2‐aminoanthracene): 47%

% MN ([2]; 10 μM, 4 hr + 20 hr recovery): 1.48%
% MN ([2]; 50 μM, 4 hr + 20 hr recovery): 2.23%
% MN ([2]; 300 μM, 4 hr + 20 hr recovery): 3.13%
Dendogram TGx‐28.65 ([3]; 10 μM): −
NSC TGx‐28.65 ([3]; 10 μM): −
PCA TGx‐28.65 ([3]; 10 μM): −
Dendogram TGx‐28.65 ([3]; 50 μM): −
NSC TGx‐28.65 ([3]; 50 μM): +
PCA TGx‐28.65 ([3]; 50 μM): +
Dendogram TGx‐28.65 ([3]; 300 μM): −
NSC TGx‐28.65 ([3]; 300 μM): +
PCA TGx‐28.65 ([3]; 300 μM): +
Compound: O=[N+]([O-])c1ccc2c(c1)Cc1ccccc1-2 [2‐Nitrofluorene]
classification by hierarchical cluster analysis (TGx‐28.65 genes) ([3]; all concentrations): non‐genotoxic
classification using TGx‐28.65 ([3]; low concentrations): non‐genotoxic
classification using TGx‐28.65 ([3]; mid and high concentrations): genotoxic
% Apoptotic cells ([4]; 10 μM): 9.84%
% Apoptotic cells ([4]; 50 μM): 12.62%
% Apoptotic cells ([4]; 300 μM): 20.43%

Compound: CC(=O)Nc1ccc(O)cc1 [Acetaminophen]
concentration range in which toxic effects are observed ([2]; human): 3000 to 10000 µM

Compound: O=P1(N(CCCl)CCCl)NCCCO1 (centres unmarked) [Cyclophosphamide]
fold increase in % MN above vehicle + S9 control ([2]; human): 8 fold

Compound: C[C@@H]1C[C@H]2[C@@H]3CCC4=CC(=O)C=C[C@]4(C)[C@@]3(F)[C@@H](O)C[C@]2(C)[C@@]1(O)C(=O)CO [Dexamethasone]
Dendogram TGx‐28.65 ([8]; 0.63 mM, ref Buick et al.): −
NSC TGx‐28.65 ([8]; 0.63 mM, ref Buick et al.): −
PCA TGx‐28.65 ([8]; 0.63 mM, ref Buick et al.): −
Dendogram TGx‐28.65 ([8]; 1 mM, ref Buick et al.): −
NSC TGx‐28.65 ([8]; 1 mM, ref Buick et al.): −
PCA TGx‐28.65 ([8]; 1 mM, ref Buick et al.): −
% Apoptotic cells ([9]; 0.63 mM): 5.5%
% Apoptotic cells ([9]; 1 mM): 12.2%

Compound: c1ccc2c(c1)ccc1cc3c(ccc4ccccc43)cc12 [Dibenz[a,h]anthracene]
GADD45A fold change vs vehicle control (+S9) [1, 12]: 1.2 fold change
GADD45A fold change vs vehicle control (+S9) [1, 13]: 1.7 fold change
GADD45A fold change vs vehicle control (+S9) [1, 14]: 2.0 fold change
% MN ([2]; 1 μg/ml, 4 hr + 20 hr recovery): 2.16%
% MN ([2]; 20 μg/ml, 4 hr + 20 hr recovery): 3.42%
% MN ([2]; 280 μg/ml, 4 hr + 20 hr recovery): 3.80%
statistically significant % MN increase relative to controls ([2]; definitive study): over twofold
Dendogram TGx‐28.65 ([3]; 1 μg/ml): +
NSC TGx‐28.65 ([3]; 1 μg/ml): −
PCA TGx‐28.65 ([3]; 1 μg/ml): −
Dendogram TGx‐28.65 ([3]; 20 μg/ml): +
NSC TGx‐28.65 ([3]; 20 μg/ml): +
PCA TGx‐28.65 ([3]; 20 μg/ml): +
Dendogram TGx‐28.65 ([3]; 280 μg/ml): +
NSC TGx‐28.65 ([3]; 280 μg/ml): +
PCA TGx‐28.65 ([3]; 280 μg/ml): +
classification using TGx‐28.65 ([3]; low concentrations): non‐genotoxic
classification by hierarchical cluster analysis (TGx‐28.65 genes) ([3]; lowest concentration): genotoxic
classification using TGx‐28.65 ([3]; mid and high concentrations): genotoxic
% Apoptotic cells ([4]; 1 μg/ml): 9.74%
% Apoptotic cells ([4]; 20 μg/ml): 16.82%
% Apoptotic cells ([4]; 280 μg/ml): 31.79%
CDKN1A fold change vs vehicle control (+S9) [5, 12]: 1.2 fold change
CDKN1A fold change vs vehicle control (+S9) [5, 13]: 2.4 fold change
CDKN1A fold change vs vehicle control (+S9) [5, 14]: 4.2 fold change
ATF3 fold change vs vehicle control (+S9) ([6]; 1 μg/ml): 1.1 fold change
ATF3 fold change vs vehicle control (+S9) ([6]; 20 μg/ml): 1.6 fold change
ATF3 fold change vs vehicle control (+S9) ([6]; 280 μg/ml): 2.3 fold change
% Relative Survival ([7]; 1 μg/ml): 97.79%
% Relative Survival ([7]; 20 μg/ml): 64.12%
% Relative Survival ([7]; 280 μg/ml): 53.91%

Compound: CN(C)N=O [Dimethylnitrosamine]
GADD45A fold change vs vehicle control (+S9) [1, 15]: 1.0 fold change
GADD45A fold change vs vehicle control (+S9) [1, 16]: 1.2 fold change
GADD45A fold change vs vehicle control (+S9) [1, 17]: 1.5 fold change
change in % MN relative to DMSO controls [2]: Significant increases
% MN ([2]; 1 mM, 4 hr + 20 hr recovery): 1.15%
% MN ([2]; 5 mM, 4 hr + 20 hr recovery): 2.29%
% MN ([2]; 10 mM, 4 hr + 20 hr recovery): 2.80%
statistically significant % MN increase relative to controls ([2]; definitive study): over twofold
induction of genes in the stress response panel [10]: did not induce any of the genes
Dendogram TGx‐28.65 ([3]; 1 mM): −
NSC TGx‐28.65 ([3]; 1 mM): −
PCA TGx‐28.65 ([3]; 1 mM): −
Dendogram TGx‐28.65 ([3]; 5 mM): +
NSC TGx‐28.65 ([3]; 5 mM): +
PCA TGx‐28.65 ([3]; 5 mM): +
Dendogram TGx‐28.65 ([3]; 10 mM): +
NSC TGx‐28.65 ([3]; 10 mM): +
PCA TGx‐28.65 ([3]; 10 mM): +
hierarchical cluster analysis with TGx‐28.65 ([3]; 10% Aroclor‐induced S9, lowest concentration (1 mM)): on the same branch as non‐genotoxic agents
classification using TGx‐28.65 ([3]; low concentrations): non‐genotoxic
classification using TGx‐28.65 ([3]; mid and high concentrations): genotoxic
% Apoptotic cells ([4]; 1 mM): 8.47%
% Apoptotic cells ([4]; 5 mM): 12.27%
% Apoptotic cells ([4]; 10 mM): 30.63%
CDKN1A fold change vs vehicle control (+S9) [5, 15]: 1.0 fold change
CDKN1A fold change vs vehicle control (+S9) [5, 16]: 1.3 fold change
CDKN1A fold change vs vehicle control (+S9) [5, 17]: 1.2 fold change
ATF3 fold change vs vehicle control (+S9) ([6]; 1 mM): 0.8 fold change
ATF3 fold change vs vehicle control (+S9) ([6]; 5 mM): 0.8 fold change
ATF3 fold change vs vehicle control (+S9) ([6]; 10 mM): 0.8 fold change
change in RS relative to DMSO controls [7]: declines
% Relative Survival ([7]; 1 mM): 76.40%
% Relative Survival ([7]; 5 mM): 72.92%
% Relative Survival ([7]; 10 mM): 45.65%

Compound: c1ccc2c(c1)ccc1ccccc12 [Phenanthrene]
increase in % MN [2]: no significant increase
Dendogram TGx‐28.65 ([3]; 8 μg/ml): −
NSC TGx‐28.65 ([3]; 8 μg/ml): −
PCA TGx‐28.65 ([3]; 8 μg/ml): −
Dendogram TGx‐28.65 ([3]; 40 μg/ml): −
NSC TGx‐28.65 ([3]; 40 μg/ml): −
PCA TGx‐28.65 ([3]; 40 μg/ml): −
Dendogram TGx‐28.65 ([3]; 100 μg/ml): −
NSC TGx‐28.65 ([3]; 100 μg/ml): −
PCA TGx‐28.65 ([3]; 100 μg/ml): −
% Apoptotic cells ([4]; 8 μg/ml): 10.60%
% Apoptotic cells ([4]; 40 μg/ml): 14.71%
% Apoptotic cells ([4]; 100 μg/ml): 26.73%
% Relative Survival ([7]; 8 μg/ml): 94.13%
% Relative Survival ([7]; 40 μg/ml): 65.32%
% Relative Survival ([7]; 100 μg/ml): 38.91%
% Relative Survival ([7]; 100 μg/ml, listed as phenanthrene): ~40%

Compound: OC[C@H]1O[C@@](CO)(O[C@H]2O[C@H](CO)[C@@H](O)[C@H](O)[C@H]2O)[C@@H](O)[C@@H]1O [Sucrose]
GADD45A fold change vs vehicle control (+S9) [1]: 0.8 fold change
% MN ([2]; 1 mM, 4 hr + 20 hr recovery): 0.94%
% MN ([2]; 10 mM, 4 hr + 20 hr recovery): 0.97%
increase in % MN ([2]; definitive study, 2% Aroclor‐induced S9): no significant increase
Dendogram TGx‐28.65 ([3]; 1 mM): −
NSC TGx‐28.65 ([3]; 1 mM): −
PCA TGx‐28.65 ([3]; 1 mM): −
Dendogram TGx‐28.65 ([3]; 10 mM): −
NSC TGx‐28.65 ([3]; 10 mM): −
PCA TGx‐28.65 ([3]; 10 mM): −
% Apoptotic cells ([4]; 1 mM): 8.98%
% Apoptotic cells ([4]; 10 mM): 9.75%
CDKN1A fold change vs vehicle control (+S9) [5]: 0.4 fold change
% Relative Survival ([7]; 1 mM): 95.04%
% Relative Survival ([7]; 10 mM): 90.93%

Compound: N.N.[Cl][Pt][Cl] [cisplatin]
classification using TGx‐28.65 ([8]; in the presence and absence of S9, ref Buick et al.): accurately classified the genotoxicity

Compound: CC(C)OS(C)(=O)=O [isopropyl methanesulfonate]
classification using TGx‐28.65 ([8]; TK6 cells, biomarker development study, ref Li et al.): genotoxic
